Target: hROMK (human Kir1.1) (Homo sapiens (Human), UniProt P48048)
Test: cell-based
Settings: CHO T-Rex hROMK stable cell line; thallium flux; 10-point concentration response curve; read-out: Human ROMK Th Flux IC50

hROMK (human Kir1.1), sequence (P48048 whole entry): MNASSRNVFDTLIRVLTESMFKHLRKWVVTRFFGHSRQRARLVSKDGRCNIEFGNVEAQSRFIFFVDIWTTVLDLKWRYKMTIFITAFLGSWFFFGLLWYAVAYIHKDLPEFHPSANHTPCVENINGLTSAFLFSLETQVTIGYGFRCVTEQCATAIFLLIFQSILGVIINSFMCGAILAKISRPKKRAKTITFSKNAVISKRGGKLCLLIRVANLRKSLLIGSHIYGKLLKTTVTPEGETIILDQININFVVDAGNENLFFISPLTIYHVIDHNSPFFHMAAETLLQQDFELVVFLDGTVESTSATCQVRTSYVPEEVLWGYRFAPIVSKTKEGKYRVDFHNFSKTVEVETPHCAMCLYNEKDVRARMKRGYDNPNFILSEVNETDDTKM

Structure (SMILES) | IC50 [nM]
Cc1cnc(-n2cc(CN3C[C@@H](c4ccc5c(c4C)COC5=O)N[C@@H](C)C3)cn2)cn1 [Example 206-I, 4-methyl-5-((2R,6S)-6-methyl-4-((1-(5-methylpyrazin-2-yl)-1H-pyrazol-4-yl)methyl)piperazin-2-yl)isobenzofuran-1(3H)-one] | 82
Cc1c([C@@H]2CN(Cc3cnn(-c4cc(C5CC5)c(C#N)cn4)c3)CCO2)ccc2c1COC2=O [Example 8-I, (R)-4-cyclopropyl-6-(4-((2-(4-methyl-1-oxo-1,3-dihydroisobenzofuran-5-yl)morpholino)methyl)-1H-pyrazol-1-yl)nicotinonitrile] | 280
Cc1cc(-n2cc(CN3CC(c4ccc5c(c4C)COC5=O)NC(C(C)(C)O)C3)cn2)ncc1C#N (single isomer, unassigned) [Example 213-I, 6-(4-((3-(2-hydroxypropan-2-yl)-5-(4-methyl-1-oxo-1,3-dihydroisobenzofuran-5-yl)piperazin-1-yl)methyl)-1H-pyrazol-1-yl)-4-methynicotinonitrile] | 1200
Cc1noc(-c2ccc(CN3CCN[C@H](c4ccc5c(c4C)COC5=O)C3)cn2)n1 [Example 264-I, (R)-4-methyl-5-(4-((6-(3-methyl-1,2,4-oxadiazol-5-yl)pyridin-3-yl)methyl)piperazin-2-yl)isobenzofuran-1(3H)-one] | 580
Cc1c([C@@H]2CN(Cc3cnn(-c4ccncc4)c3)CCO2)ccc2c1COC2=O [Example 44-I, (R)-4-methyl-5-(4-((1-(pyridin-4-yl)-1H-pyrazol-4-yl)methyl)morpholin-2-yl)isobenzo-furan-1(3H)-one] | 200
Cc1cc(-c2nnc(CN3CC(c4ccc5c(c4C)COC5=O)NC(C(F)F)C3)o2)ncc1C#N (single isomer, unassigned) [Example 273-I, 6-(5-((3-(difluoromethyl)-5-(4-methyl-1-oxo-1,3-dihydroisobenzofuran-5-yl)piperazin-1-yl)methyl)-1,3,4-oxadiazol-2-yl)-4-methylnicotinonitrile] | 720
Cc1cc(-c2ncc(C(=O)N3CCO[C@H](c4ccc5c(c4C)COC5=O)C3)s2)ncc1C#N [Example 33-I, (R)-4-methyl-6-(5-(2-(4-methyl-1-oxo-1,3-di-hydroisobenzofuran-5-yl)morpholine-4-carbonyl)thiazol-2-yl) nicotinonitrile] | 690
Cc1cc(-n2cc(CCN3CCO[C@H](c4ccc5c(c4C)COC5=O)C3)cn2)ncc1C#N [Example 31-I, (R)-4-methyl-6-(4-(2-(2-(4-methyl-1-oxo-1,3-dihydroisobenzofuran-5-yl)morpholino)ethyl)-1H-pyrazol-1-yl) nicotinonitrile] | 190
Cc1cc(N2CCCS2(=O)=O)cc(-n2cc(CN3C[C@@H](c4ccc5c(c4C)COC5=O)N[C@@H](C)C3)cn2)n1 [Example 253-I, 5-((2R,6S)-4-((1-(4-(1,1-dioxidoisothiazolidin-2-yl)-6-methylpyridin-2-yl)-1H-pyrazol-4-yl)methyl)-6-methylpiperazin-2-yl)-4-methylisobenzofuran-1(3H)-one] | 400
Cc1c([C@@H]2CN(Cc3cnn(-c4cc(F)c5oc(=O)n(C)c5c4)c3)CCN2)ccc2c1COC2=O [Example 55-I, (R)-7-fluoro-3-methyl-5-(4-((3-(4-methyl-1-oxo-1,3-dihydroisobenzo-furan-5-yl)piperazin-1-yl)methyl)-1H-pyra-zol-1-yl)benzo[d]oxazol-2(3H)-one] | 86
Cc1cc(-n2cc(CN3CCC(F)(F)C(c4ccc5c(c4C)COC5=O)C3)cn2)ncc1C#N (stereo not drawn) [Example 5, 6-(4-((4,4-difluoro-3-(4-methyl-1-oxo-1,3-dihydroisobenzofuran-5-yl)piperidin-1-yl)methyl)-1H-pyrazol-1-yl)-4-methylnicotinonitrile] | 270
COc1cc(-n2cnc(CN3C[C@@H](c4ccc5c(c4C)COC5=O)OC3=O)c2)ncc1C#N [Example 78-I, (R)-4-methoxy-6-(4-((5-(4-methyl-1-oxo-1,3-dihydroisobenzofuran-5-yl)-2-oxooxazolidin-3-yl)methyl)-1H-imidazol-1-yl)nicotinonitrile] | 810
Cc1cn(-c2ccc(CN3CC(=O)N[C@H](c4ccc5c(c4C)COC5=O)C3)cn2)cn1 [Example 76-I, (R)-6-(4-methyl-1-oxo-1,3-dihydroisobenzo-furan-5-yl)-4-((6-(4-methyl-1H-imidazol-1-yl)pyridin-3-yl)methyl) piperazin-2-one] | 300
Cc1ccc(-n2cnc(CN3C[C@@H](c4ccc5c(c4C)COC5=O)N[C@@H](C)C3)c2)cc1 [Example 178-I, 4-methyl-5-((2R,6S)-6-methyl-4-((1-(p-tolyl)-1H-imidazol-4-yl)methyl)piperazin-2-yl)isobenzofuran-1(3h)-one] | 220
Cc1c([C@@H]2CN(Cc3ccc(-n4cc(C(N)=O)cn4)nc3)CCN2)ccc2c1COC2=O [Example 138-I, (R)-1-(5-((3-(4-methyl-1-oxo-1,3-dihydroisobenzofuran-5-yl)piperazin-1-yl)methyl)pyridin-2-yl)-1H-pyrazole-4-carboxamide] | 670
Cc1c([C@@H]2CN(Cc3ccc(-n4cnc(C(F)F)c4)nc3)CCN2)ccc2c1COC2=O [Example 235-I, (R)-5-(4-((6-(4 (difluoromethyl)-1H-imidazol-1-yl)pyridin-3-yl)methyl)piperazin-2-yl)-4-methylisobenzofuran-1(3H)-one] | 83
Cc1cc(-n2cc(CN3C[C@@H](c4ccc5c(c4C)COC5=O)NC3=O)cn2)ncc1C#N [Example 118-I, (R)-4-methyl-6-(4-((4-(4-methyl-1-oxo-1,3-dihydroisobenzofuran-5-yl)-2-oxoimidazolidin-1-yl)methyl)-1H-pyrazol-1-yl)nicotinonitrile] | 290
Cc1cc(-n2cc(CN3CCN(S(C)(=O)=O)[C@H](c4ccc5c(c4C)COC5=O)C3)cn2)ncc1C#N [Example 69-I, (R)-4-methyl-6-(4-((3-(4-methyl-1-oxo-1,3-dihydroisobenzofuran-5-yl)-4-(methylsulfonyl)piperazin-1-yl)methyl)-1H-pyrazol-1-yl) nicotinonitrile] | 900
CNC(=O)c1nn(-c2cc(OC)c(C#N)cn2)cc1CN1CCN[C@H](c2ccc3c(c2C)COC3=O)C1 [Example 260-I, (R)-1-(5-cyano-4-methoxypyridin-2-yl)-N-methyl-4-((3-(4-methyl-1-oxo-1,3-dihydroisobenzofuran-5-yl)piperazin-1-yl)methyl)-1H-pyraozl-3-carboxamide] | 430
Cc1c([C@@H]2CN(Cc3cnc(-c4ccc5oc(=O)n(C)c5c4)s3)CCO2)ccc2c1COC2=O [Example 19-I, (R)-3-methyl-5-(5-((2-(4-methyl-1-oxo-1,3-dihydroisobenzofuran-5-yl)morpholino)methyl)thiazol-2-yl)benzo[d]oxazol-2(3H)-one] | 180
Cc1c(C2CN(Cc3cnn(-c4ccc5oc(=O)n(C)c5c4)c3)CCC2(F)F)ccc2c1COC2=O (stereo not drawn) [Example 4, 5-(4-((4,4-difluoro-3-(4-methyl-1-oxo-1,3-dihydroisobenzofuran-5-yl)piperidin-1-yl)methyl)-1H-pyrazol-1-yl)-3-methylbenzo[d]oxazol-2(3H)-one] | 640
COc1cc(-c2ncc(C(=O)N3CCO[C@H](c4ccc5c(c4C)COC5=O)C3)s2)ncc1C#N [Example 34-I, (R)-4-methoxy-6-(5-(2-(4-methyl-1-oxo-1,3-dihydroisobenzofuran-5-yl)morpholine-4-carbonyl)thiazol-2-yl) nicotinonitrile] | 190
Cc1c([C@@H]2CN(Cc3cnn(-c4ccc5oc(=O)n(C)c5c4)c3)CCN2)ccc2c1COC2=O [Example 58-I, (R)-3-methyl-5-(4-((3-(4-methyl-1-oxo-1,3-dihydroisobenzofuran-5-yl)piperazin-1-yl)methyl)-1H-pyrazol-1-yl) benzo[d]oxazol-2(3H)-one] | 60
Cc1cc(-n2cc(CN3C[C@@H](c4ccc5c(c4C)COC5=O)NS3(=O)=O)cn2)ncc1C#N [Example 119-I, (R)-4-methyl-6-(4-((4-(4-methyl-1-oxo-1,3-dihydroisobenzofuran-5-yl)-1,1-dioxido-1,2,5-thiadiazolidin-2-yl)methyl)-1H-pyrazol-1-yl)nicotinonitrile] | 140
Cc1ncc(-n2cc(CN3C[C@@H](c4ccc5c(c4C)COC5=O)N[C@@H](C)C3)cn2)cn1 [Example 209-I, 4-methyl-5-((2R,6S)-6-methyl-4-((1-(2-methylpyrimidin-5-yl)-1H-pyrazol-4-yl)methyl)piperazin-2-yl)isobenzofuran-1(3H)-one] | 100
Cc1c([C@@H]2CN(Cc3cnc(-n4c(C)nnc4C)nc3)CCN2)ccc2c1COC2=O [Example 201-I, (R)-5-(4-((2-(3,5-dimethyl-4H-1,2,4-triazol-4-yl)pyrimidn-5-yl)methyl)piperazin-2-yl)-4-methylisobenzofuran-1(3H)-one] | 190
Cc1cc(-c2nnc(CN3CCO[C@H](c4ccc5c(c4C)COC5=O)C3)o2)ncc1C#N [Example 30-I, (R)-4-methyl-6-(5-((2-(4-methyl-1-oxo-1,3-dihydroisobenzofuran-5-yl)morpholino)methyl)-1,3,4-oxadiazol-2-yl) nicotinonitrile] | 260
Cc1cc(N2CC(CN3CCN[C@H](c4ccc5c(c4C)COC5=O)C3)OC2=O)ncc1C#N (single isomer, unassigned) [Example 160-I] | 130
Cc1cc(-n2ccc(CN3CCO[C@H](c4ccc5c(c4C)COC5=O)C3)n2)ncc1C#N [Example 53-I, (R)-4-methyl-6-(3-((2-(4-methyl-1-oxo-1,3-dihydroisobenzofuran-5-yl)morpholino)methyl)-1H-pyrazol-1-yl) nicotinonitrile] | 370
Cc1c([C@@H]2CN(Cc3cnc(-n4cncn4)nc3)CCN2)ccc2c1COC2=O [Example 234-I, (R)-5-(4-((2-(1H-1,2,4-triazol-1-yl)pyrimidin-5-yl)methyl)piperazin-2-yl)-4-methylisobenzofuran-1(3H)-one] | 78

Source: US10501449B2 (priority 2018, dated 2019)
